Assay results published in the NIST ThermoML archive (doi:10.1021/acs.jced.8b00521).

Test: xn = mol fraction of the nth substance listed
Conditions: Liquid; for mass density: Vibrating tube method; for viscosity: Capillary tube (Ostwald / Ubbelohde) method

CCCCCCCC(=O)OCC [ethyl octanoate] + CCCCCCCCCCCC(=O)OC
Conditions | mass density [kg/m3] | viscosity [mPa·s]
303.15 K, 12010 kPa, x2 = 0.6001 | 867 | –
303.15 K, 12020 kPa, x2 = 0.1999 | 865 | 1.7
303.15 K, 12020 kPa, x2 = 0.4999 | 867 | 2.08
303.15 K, 12030 kPa, x2 = 0.9 | 869 | 2.64
303.15 K, 12040 kPa, x2 = 0.4 | 866 | 1.94
303.15 K, 14940 kPa, x2 = 0.6001 | 869 | 2.3
303.15 K, 14970 kPa, x2 = 0.6999 | 870 | 2.44
303.15 K, 14970 kPa, x2 = 0.8001 | 870 | 2.56
303.15 K, 14980 kPa, x2 = 0.9 | 871 | 2.7
303.15 K, 15020 kPa, x2 = 0.1 | 866 | 1.64
303.15 K, 15040 kPa, x2 = 0.4999 | 868 | 2.13
303.15 K, 15070 kPa, x2 = 0.1999 | 867 | 1.75
303.15 K, 15070 kPa, x2 = 0.3001 | 867 | 1.88
303.15 K, 15080 kPa, x2 = 0.4 | 868 | 2
313.15 K, 100 kPa, x2 = 0.1 | 850 | 1.22
313.15 K, 100 kPa, x2 = 0.1999 | 850 | 1.31
313.15 K, 100 kPa, x2 = 0.3001 | 851 | 1.39
313.15 K, 100 kPa, x2 = 0.4 | 851 | 1.46
313.15 K, 100 kPa, x2 = 0.4999 | 851 | 1.55
313.15 K, 100 kPa, x2 = 0.6001 | 852 | 1.65
313.15 K, 100 kPa, x2 = 0.6999 | 852 | 1.75
313.15 K, 100 kPa, x2 = 0.8001 | 852 | 1.85
313.15 K, 100 kPa, x2 = 0.9 | 853 | 1.95
313.15 K, 2950 kPa, x2 = 0.6001 | 853 | 1.71
313.15 K, 2960 kPa, x2 = 0.8001 | 854 | 1.93
313.15 K, 2970 kPa, x2 = 0.6999 | 854 | 1.82
313.15 K, 2980 kPa, x2 = 0.1 | 851 | 1.25
313.15 K, 2980 kPa, x2 = 0.1999 | 852 | 1.34
313.15 K, 2990 kPa, x2 = 0.3001 | 852 | 1.43
313.15 K, 3030 kPa, x2 = 0.4 | 853 | 1.52
313.15 K, 3040 kPa, x2 = 0.4999 | 853 | 1.59
313.15 K, 3070 kPa, x2 = 0.9 | 855 | 2.03
313.15 K, 5960 kPa, x2 = 0.3001 | 854 | 1.48
313.15 K, 5990 kPa, x2 = 0.6999 | 856 | 1.89
313.15 K, 5990 kPa, x2 = 0.8001 | 856 | 1.99
313.15 K, 6000 kPa, x2 = 0.1 | 853 | 1.29
313.15 K, 6000 kPa, x2 = 0.1999 | 854 | 1.38
313.15 K, 6000 kPa, x2 = 0.6001 | 855 | 1.76
313.15 K, 6050 kPa, x2 = 0.4 | 854 | 1.56
313.15 K, 6090 kPa, x2 = 0.9 | 857 | 2.09
313.15 K, 6100 kPa, x2 = 0.4999 | 855 | 1.65
